Data taken from patent US20260009799A1, “CA-IX TARGETING FLUORESCENT PROBES” (BRACCO IMAGING S.P.A., priority 2022, published 2026).

Tests used:
[1] = Optical characterization (excitation/emission maxima, molar extinction coefficient); assay type: physicochemical
Experimental: A dual-beam UV-VIS spectrophotometer (Lambda 40, Perkin Elmer) was used to determine the absorbance (Abs) of the compounds of the invention. Emission/excitation (Em/Ex) spectra were carried out on a spectrofluorometer (FluoroLog-3 1IHR-320, Horiba Jobin Yvon) equipped with an F-3018 integrating sphere accessory. The measurements were performed using an excitation wavelength at maximum absorbance of different dyes, and the sample was excited with a 450 W Xenon light Source. Detection was performed by photomultiplier tubes (PMT-NIR) cooled detector or by TBX-04 detector. Dye solutions were carefully prepared to have an absorbance lower than 0.1 (optical densities) to minimize re-absorption phenomena.
The compounds of the invention were characterized in terms of their optical properties in vitro in aqueous medium (i.e., water/PBS pH 7.4) and in a clinical chemistry control serum (Seronorm, Sero SA), mimicking the chemical composition and optical properties of human serum. All solutions were freshly prepared. In particular, the compounds of the invention are characterized by absorption maxima comprised in the range from about 750 nm to 780 nm.
The excitation and emission maxima in PBS and Seronorm and the molar extinction coefficient (ε) in water of representative compounds of formula (I) are shown in Table I in comparison with the known CA-IX targeting fluorescent probe named Hypoxyfluor-1 (HF-1, for instance disclosed in Bioconjugate Chem 2018, 29, 3320-3331). […] Moreover, the extinction coefficients were higher than 200,000 mM^−1 cm^−1 for all compounds.

[2] = biological target: T1, human serum albumin (HSA) (Homo sapiens, UniProt P02768); assay: Binding to albumin (ultrafiltration, absorbance of filtrates); assay type: in vitro ADME; details: 4.76 μM probe in PBS, 10 KDa cut off ultrafiltration, 25° C.; read-out: HSA affinity (KA, M^−1) (converted)
T1 construct: purchased Sigma-Aldrich A9511
T1 sequence (P02768 25-609): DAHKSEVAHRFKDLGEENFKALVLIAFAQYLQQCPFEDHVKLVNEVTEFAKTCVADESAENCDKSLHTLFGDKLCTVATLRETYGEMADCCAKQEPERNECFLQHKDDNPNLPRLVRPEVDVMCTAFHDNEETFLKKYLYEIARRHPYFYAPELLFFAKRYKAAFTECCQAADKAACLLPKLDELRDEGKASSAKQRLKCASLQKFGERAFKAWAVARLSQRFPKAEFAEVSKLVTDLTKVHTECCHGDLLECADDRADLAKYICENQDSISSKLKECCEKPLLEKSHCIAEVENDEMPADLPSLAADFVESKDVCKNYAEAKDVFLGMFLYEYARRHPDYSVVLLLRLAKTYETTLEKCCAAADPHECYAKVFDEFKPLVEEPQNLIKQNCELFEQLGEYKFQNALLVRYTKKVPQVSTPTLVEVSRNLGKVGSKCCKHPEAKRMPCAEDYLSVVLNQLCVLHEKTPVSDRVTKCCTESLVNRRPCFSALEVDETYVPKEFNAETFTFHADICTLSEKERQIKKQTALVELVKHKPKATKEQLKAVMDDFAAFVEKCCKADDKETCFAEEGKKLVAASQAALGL
Experimental: The affinity of the probes for human serum albumin (HSA) was determined to assess the influence of structural features on their albumin binding properties. Briefly, HSA (A9511, Sigma-Aldrich) was prepared in a […] stock solution in PBS and used to obtain a series of dilutions in PBS (0, 9.52·10^−7, 4.76·10^−6, 9.52·10^−6, 1.90·10^−5, 3.81·10^−5, 5.71·10^−5, 9.52·10^−5, 1.43·10^−4, 1.90·10^−4, 2.86·10^−4, 3.81·10^−4 M), in presence of 4.76 μM of the CA-IX-targeting probe (prepared from a 50 μM stock solution in PBS), in a total volume of 0.525 mL. The samples were centrifuged (10000 g for 30 min at 25° C.) in a Microcon device (10 KDa MW cut off, Amicon Ultra-0.5 Centrifugal Filter Unit with Ultracel-10 membrane) and the absorbance measurements of the filtrates were obtained with the spectrophotometer at the maximum absorbance wavelength of the fluorophore.
Data analysis was performed by fitting the raw data, using Microsoft Excel Solver, with the equation:
where ΔA/b=Absorbance measured (b=1 cm), KRL=KA calculated by fitting, Δε·Rt are calculated by fitting, and [L]=HSA concentration. ΔA/b values were experimentally obtained by subtracting the absorbance of “0 HSA sample” to the absorbance of each other sample.

[3] = system: hypoxic HT-29 colorectal tumor, subcutaneously induced; assay: In vivo tumor optical imaging (IVIS Spectrum), tumor-to-background ratio; design: species or system mice; details: 24 hours after intravenous administration, 1 nmol/mouse, tumor vs hind limb muscle
Experimental: HT-29 cells were collected and washed once with serum-free medium. Five million HT-29 cells were suspended in 0.1 mL serum-free medium and injected subcutaneously in the right flank of 5 weeks old mice. Tumor development was followed by caliper measurement twice a week, from 7 days after inoculation. Tumor volume was calculated according to the formula: (L*W2)/2, where L and W are the maximum length and width of the tumor.
Optical Imaging experiments on HT-29 tumor bearing animals were performed after administration of Reference 1, 2 and 3, and compounds 1 and 2, all at a dose of 1 nmol/mouse in an administration volume of 0.1 mL (corresponding to about 5 mL/kg, considering a 20 g-mouse) at an injection rate of about 1 mL/min, by the IVIS Spectrum system when the tumor reached at least 200 mm^3 volume. For each group, in vivo OI experiments were performed at 0.5, 1, 2, 3, 4, 6 and 24 hours after intravenous administration of the fluorescent compounds. During imaging experiments animals were maintained under gaseous anesthesia. Regions of interest (ROIs) were drawn on the tumor and on a reference background healthy region (hind limb muscle) of the mouse for each fluorescence image at every time point to evaluate signal intensity in the tissues (expressed as Average Radiant Efficiency). The ratio between the fluorescence signal in the tumor and in the background healthy tissue (tumor-to-background ratio, TBR) was then calculated to assess the contrast.
All the compounds of the invention and the References were tested at a dose of 1 nmol/mouse.

[4] = system: HT-29 excised tumors and tissues; assay: Ex vivo biodistribution in excised tumors and organs; design: species or system mice; details: 1 nmol; for Organ-to-muscle ratio, intestine (mean ± SD) / Organ-to-muscle ratio, kidney (mean ± SD) / Organ-to-muscle ratio, liver (mean ± SD) / Organ-to-muscle ratio, skin (mean ± SD) / Organ-to-muscle ratio, spleen (mean ± SD) / Organ-to-muscle ratio, stomach (mean ± SD): ex vivo, 24 hours after administration; for ex vivo TBR (mean ± SD), HT-29 tumor: samples collected 24 hours after administration, tumor vs hind limb muscle
Experimental: The ex vivo biodistribution of the representative compounds 1 and 2 and of the reference compounds (at 1 nmol/mouse) was evaluated in HT-29 excised tumors and tissues at the end of the in vivo OI sessions 24 hours post intravenous administration. At the end of the in vivo experiment, animals were euthanized by overdose of gaseous anesthesia followed by cervical dislocation. Tumor tissue, muscle, and other organs of interest were removed for ex vivo fluorescent signal measurements. The fluorescence signal intensity was measured by the IVIS Spectrum system. Regions of interest (ROIs) were drawn around each organ and tumor using the Living Image Software (PerkinElmer) and evaluating signal intensity in the tissues (expressed as Average Radiant Efficiency). The ratio between the fluorescence signal in the organs and tumor was then calculated to assess the contrast to hind limb muscle (representing the background).

[5] = Optical characterization (excitation/emission maxima, molar extinction coefficient); assay type: physicochemical; details: in water
[6] = biological target: T2, CA-IX expressing HT-29 cells (Homo sapiens, UniProt Q16790); assay: Cellular binding assessment by flow cytometry; details: HT-29 cells, 1 hour 30 min on ice, flow cytometry; read-out: CA-IX receptor affinity (KD, nM to HT-29 cells)
T2 construct: CA-IX, expressed in its physiological environment at the cell-surface; host or cells: HT-29 human colorectal adenocarcinoma cells
Experimental: Human colon adenocarcinoma HT-29 cells (ATCC) used for the cellular binding experiments were cultured in McCoy's 5A medium (Sigma-Aldrich), supplemented with 10% HyClone Fetal Clone III (Euroclone), 2 mM L-glutamine (Sigma-Aldrich), 100 IU/mL penicillin, 0.1 mg/mL streptomycin, 0.25 μg/mL amphotericin B (Antibiotic-Antimycotic solution, Life Technologies) and cells were grown at 37° C. in humidified atmosphere enriched with 5% CO2. DPBS without MgCl2 and CaCl2) (Sigma-Aldrich) was used for cell rinsing.
Indeed, by using the anti-human CA-IX antibody MAB2188 (R&D Systems) and the DAKO […], according to the instruction of the datasheet, HT-29 cells were estimated to express about 150,000 CA-IX molecules per cell. Thus, HT-29 cells were used to measure the binding of all compounds to CA-IX, expressed in its physiological environment at the cell-surface. Briefly, HT-29 cells were detached with StemPro® Accutase® Cell Dissociation Reagent (Life Technologies), collected in DPBS and counted. At least 2·10^5 HT-29 cells were placed in 1.5 mL tubes on ice and resuspended in 50-100 μL of cold FACS buffer (eBioscience™ Flow Cytometry Staining Buffer, Invitrogen) containing scalar concentrations of compounds (HF-1, reference 2, and compound 1: range 0-20 μM; reference 3: range 0-24 μM; compound 2: range 0-10 μM). After incubation (1 hour and 30 min on ice in the dark), cells were rinsed 3 times in 300 μL of cold FACS buffer by centrifugation (5 min, 4° C., 350 RCF), discarding the supernatant. Cell pellets were then resuspended in 200 μL of cold FACS buffer (or in an adequate volume in order to obtain no more than 1000 recorded events per μL during FACS analysis) and analyzed with the flow cytometer Accuri™ C6 (BD Biosciences). The mean cell-associated fluorescence was plotted against concentration and the dissociation constant at equilibrium (KD) was inferred by mathematical fitting with GraphPad Prism v.9 software, according to the following equation: […]
where Bmax is the maximum specific binding in the same units as Y; KD is the equilibrium dissociation constant, in the same units as X; NS is the slope of nonspecific binding in Y units divided by X units; and background is the amount of nonspecific binding with no added Compound.
All compounds were analyzed in at least three independent experiments.

[7] = biological target: recombinant bovine CA-II enzyme (bCAII) (Bos taurus, UniProt P00921); assay: Fluorescence-based dansylamide (DNSA) displacement assay on carbonic anhydrase catalytic site
Chain of recombinant bovine CA-II enzyme (bCAII) (P00921 whole entry): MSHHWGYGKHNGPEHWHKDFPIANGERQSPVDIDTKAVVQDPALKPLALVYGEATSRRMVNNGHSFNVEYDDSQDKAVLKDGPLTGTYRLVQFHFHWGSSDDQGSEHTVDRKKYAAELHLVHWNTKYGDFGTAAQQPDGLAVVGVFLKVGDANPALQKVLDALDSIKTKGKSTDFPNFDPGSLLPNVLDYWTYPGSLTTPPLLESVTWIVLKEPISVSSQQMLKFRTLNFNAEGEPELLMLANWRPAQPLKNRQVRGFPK

[8] = after injection into the patient; cited from earlier work

| Max Em (nm, PBS pH 7.4) ([1]; emission maximum, PBS pH 7.4) [nm] | Max Em (nm, Seronorm) ([1]; emission maximum, Seronorm control serum) [nm] | Max Ex (nm, PBS pH 7.4) ([1]; excitation maximum, PBS pH 7.4) [nm] | Max Ex (nm, Seronorm) ([1]; excitation maximum, Seronorm control serum) [nm] | Kd [2] [nM] | Organ-to-muscle ratio, intestine (mean ± SD) [4] | Organ-to-muscle ratio, kidney (mean ± SD) [4] | Organ-to-muscle ratio, liver (mean ± SD) [4] | Organ-to-muscle ratio, skin (mean ± SD) [4] | Organ-to-muscle ratio, spleen (mean ± SD) [4] | Organ-to-muscle ratio, stomach (mean ± SD) [4] | molar extinction coefficient (ε) [5] [M⁻¹ cm⁻¹] | Kd [6] [nM] | Kd [7] [nM] | Compound | in vivo TBR (mean ± SD) [3] | ex vivo TBR (mean ± SD), HT-29 tumor [4] | time after injection to reach tumor/blood ratios suitable for imaging [8] [days] |
| --- | --- | --- | --- | --- | --- | --- | --- | --- | --- | --- | --- | --- | --- | --- | --- | --- | --- |
| 798 | 808 | 772 | 792 | 6400 | 2.2 ± 1.3 | 2.4 ± 0.3 | 5.7 ± 0.2 | 1.4 ± 0.0 | 1.4 ± 0.3 | 4.0 ± 1.7 | 255000 |  |  | CC1(C)C(/C=C/C2=C(Oc3ccc(CCC(=O)NCCCCCCCC(=O)Nc4nnc(S(N)(=O)=O)s4)cc3)C(=C/C=C3/N(CCCCS(=O)(=O)O)c4ccc(S(=O)(=O)O)cc4C3(C)C)/CCC2)=[N+](CCCCS(=O)(=O)[O-])c2ccc(S(=O)(=O)O)cc21 [Reference 1] | 1.8 ± 0.3 | 3.1 ± 0.3 |  |
|  |  |  |  | 69900 | 3.0 ± 0.3 | 19.7 ± 2.2 | 6.2 ± 1.3 | 1.7 ± 0.4 | 1.7 ± 0.4 | 6.1 ± 0.7 |  | 349 ± 49 | 55.8 ± 1.1 | CC(=O)NC(CCCCn1cc(CCCC(=O)Nc2nnc(S(N)(=O)=O)s2)nn1)C(=O)NCCOCCOCCNC(=O)CCCCCN1/C(=C/C=C2\CCCC(/C=C/C3=[N+](CCCCS(=O)(=O)[O-])c4ccc(C(=O)NC[C@H](O)[C@@H](O)[C@H](O)[C@H](O)CO)cc4C3(C)C)=C2Oc2ccc(S(=O)(=O)O)cc2)C(C)(C)c2cc(C(=O)NC[C@H](O)[C@@H](O)[C@H](O)[C@H](O)CO)ccc21 (stereo partly shown) [Reference 2] | 3.4 ± 0.6 | 9.2 ± 3.3 |  |
|  |  |  |  | 24000 | 2.7 ± 0.9 | 15.8 ± 3.4 | 3.6 ± 1.0 | 2.0 ± 0.5 | 1.2 ± 0.3 | 6.7 ± 1.4 |  | 251 ± 44 | 30.2 ± 1 | CC(=O)NC(CCCCn1cc(CCCC(=O)Nc2nnc(S(N)(=O)=O)s2)nn1)C(=O)NCCOCCOCCNC(=O)CCCCCN1/C(=C/C=C/C=C/C=C/C2=[N+](CCC(C)S(=O)(=O)[O-])c3ccc(C(=O)NC[C@H](O)[C@@H](O)[C@H](O)[C@H](O)CO)cc3C2(C)C)C(C)(C)c2cc(C(=O)NC[C@H](O)[C@@H](O)[C@H](O)[C@H](O)CO)ccc21 (stereo partly shown) [Reference 3] | 4.7 ± 0.6 | 14.7 ± 2.3 |  |
|  |  |  |  |  |  |  |  |  |  |  |  |  |  | ^124I-cG250: chimeric version of monoclonal antibody G250 labeled with radionuclide 124I |  |  | 2 to 7 |
